Test [1] concerns E. coli S30 extract (bacterial protein synthesis). The test can be described thus: E. coli S30 extract coupled transcription-translation luciferase assay (inhibition of bacterial protein synthesis). As to conditions: class by IC50 or % inhibition @ 1 μM, read-out: S30 IC50 (μM/% inhib.). It counts as biochemical. In short, it runs like this:
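Luciferase luminescence quantified inhibition of protein synthesis relative to water controls, with no-DNA reactions giving background. Compounds in 2-fold serial dilution (8 levels) were incubated 1 hour at 37 °C with E. coli S30 extract, amino acids and pBESTluc plasmid, then chilled to stop.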

For test [2], the target named is Rabbit Reticulocyte Lysate (eukaryotic protein synthesis). The test can be described thus: Rabbit reticulocyte lysate luciferase assay (inhibition of eukaryotic protein synthesis). It counts as biochemical. The settings on record: class by IC50 or % inhibition @ 1 μM, read-out: Rabbit reticulocyte IC50 (μM/% inhib.). In short, it runs like this: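 Percent inhibition calculated against water-only controls from luminescence; background set by lysate lacking RNA. Compounds, 8-point 2-fold titration, incubated 90 minutes at 30° C with nuclease-treated rabbit reticulocyte lysate programmed with luciferase control RNA plus complete amino acids.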

Test [3] concerns A. baumannn (Ab). Briefly: Broth microdilution minimum inhibitory concentration (MIC), CLSI. It counts as cell-based. The settings on record: Acinetobacter baumannii, read-out: Ab + bicarb MIC. In short, it runs like this:
(§1)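 Bacteria grown at 35±2 °C to 0.5 McFarland turbidity were added at 5×10^4 CFU/well to triplicate two-fold compound series (8 dilutions). Media were cation-adjusted Mueller-Hinton broth alone or with sodium bicarbonate (6.25 or 25 mM final) or heat-inactivated human serum (0–50%), per modified CLSI method.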

Test [4] concerns E. coli (Ec). The test is described as above. It counts as cell-based. The settings on record: Escherichia coli, growth medium supplemented with sodium bicarbonate, read-out: E. coli + bicarb MIC. In short, it runs like this: as §1
Test [5] has as its system E. faecalis (Ef). The description is as above. It counts as cell-based. The settings on record: Enterococcus faecalis, growth medium supplemented with sodium bicarbonate, read-out: Ef + bicarb MIC. In short, it runs like this: as §1
The test system of test [6] is P. aeruginosa (Pa). Described as above. It counts as cell-based. The settings on record: Pseudomonas aeruginosa, growth medium supplemented with sodium bicarbonate, read-out: Pa MIC + bicarb. In short, it runs like this: as §1
Test [7] relates to S. aureus (Sa). The description is as above. It counts as cell-based. As to conditions: Staphylococcus aureus, growth medium supplemented with sodium bicarbonate, read-out: Sa + bicarb MIC. In short, it runs like this:
as §1

The MIC is the least concentration at which growth counts as inhibited. Consider `N[C@@H]1[C@H]2CN(Cc3ccc(-n4ccc(NC(=O)N5CCC6(CCNCC6)CC5)nc4=O)cc3)C[C@@H]12` [Compound 62], for which the IC50 in test [1] and in test [2] was no less than 1 µM each time. In addition, the MIC is greater than 32 µg/mL in test [3]; less than 8 µg/mL in test [4]; 8 to 32 µg/mL in test [5]; greater than 32 µg/mL in test [6]; less than 8 µg/mL in test [7].
In the case of `N[C@@H]1[C@H]2CN(Cc3ccc(-n4ccc(NC(=O)N5CCC6(CCNC6)C5)nc4=O)cc3)C[C@@H]12` (stereo partly drawn) [Compound 63], the IC50 in test [1] and in test [2] was no less than 1 µM in each case. Also, the MIC in test [3], in test [4], in test [5], in test [6] and in test [7] was greater than 32 µg/mL each time.
Consider `NC1CCC12CCN(C(=O)Nc1ccn(-c3ccc(CN4C[C@@H]5[C@@H](N)[C@@H]5C4)cc3)c(=O)n1)CC2` (stereo partly drawn) [Compound 64], for which the IC50 in test [1] and in test [2] was no less than 1 µM throughout. The MIC in test [3] is greater than 32 µg/mL; in test [4] it was 8 to 32 µg/mL; in test [5], 8 to 32 µg/mL; in test [6], greater than 32 µg/mL; in test [7] it was 8 to 32 µg/mL.
For `CC(C)(N)C(=O)N1CCN(C(=O)Nc2ccn(-c3ccc(CN4C[C@@H]5[C@@H](N)[C@@H]5C4)cc3)c(=O)n2)CC1` [Compound 65], the IC50 in test [1] was less than 0.5 µM; in test [2], no less than 1 µM. Further, the MIC in test [3] is 8 to 32 µg/mL; in test [4], less than 8 µg/mL; in test [5] it was less than 8 µg/mL; in test [6], greater than 32 µg/mL; in test [7], less than 8 µg/mL.
For the compound `CC(C)(N)C(=O)N1CCN(C(=O)Nc2ccn(-c3ccc(CN4C[C@@H]5[C@@H](N)[C@@H]5[C@H]4CO)cc3)c(=O)n2)CC1` [Compound 66], the IC50 in test [1] is 0.5 to 1 µM; in test [2], no less than 1 µM. Further, the MIC was greater than 32 µg/mL in test [3]; less than 8 µg/mL in test [4]; greater than 32 µg/mL in test [5]; greater than 32 µg/mL in test [6]; 8 to 32 µg/mL in test [7].
Consider `CC(c1ccc(-n2ccc(NC(=O)N3CCN(C(=O)C(C)(C)N)CC3)nc2=O)cc1)N1C[C@@H]2[C@@H](N)[C@@H]2C1` (stereo partly drawn) [Compound 67], for which the IC50 in test [1] is less than 0.5 µM; in test [2] it was no less than 1 µM. Also, the MIC is greater than 32 µg/mL in test [3]; less than 8 µg/mL in test [4]; less than 8 µg/mL in test [5]; greater than 32 µg/mL in test [6]; less than 8 µg/mL in test [7].
Take `CC(C)(N)C(=O)N1CCN(C(=O)Nc2ccn(-c3ccc(CN4C[C@@H]5[C@@H](CN)[C@@H]5C4)cc3)c(=O)n2)CC1` [Compound 68]: the IC50 is less than 0.5 µM in test [1] and no less than 1 µM in test [2]. The MIC in test [3] is greater than 32 µg/mL; in test [4], less than 8 µg/mL; in test [5], greater than 32 µg/mL; in test [6], greater than 32 µg/mL; in test [7], less than 8 µg/mL.
`CC(N)[C@H]1[C@@H]2CN(Cc3ccc(-n4ccc(NC(=O)N5CCN(C(=O)C(C)(C)N)CC5)nc4=O)cc3)C[C@@H]21` (stereo partly drawn) [Compound 73]: the IC50 is less than 0.5 µM in test [1] and no less than 1 µM in test [2]. For the same compound, the MIC was greater than 32 µg/mL in test [3]; less than 8 µg/mL in test [4]; 8 to 32 µg/mL in test [5]; greater than 32 µg/mL in test [6]; less than 8 µg/mL in test [7].
For `CC(C)(N)C(=O)N1CCN(C(=O)Nc2ccn(-c3ccc(CN4C[C@@H]5[C@H](C4)[C@H]5C(N)=O)cc3)c(=O)n2)CC1` [Compound 74], the IC50 in test [1] and in test [2] was no less than 1 µM each time. The MIC in test [3] was greater than 32 µg/mL; in test [4] it was 8 to 32 µg/mL; in test [5] it was greater than 32 µg/mL; in test [6] it was greater than 32 µg/mL; in test [7], 8 to 32 µg/mL.
Take `CNC[C@@H]1[C@H]2CN(Cc3ccc(-n4ccc(NC(=O)N5CCN(C(=O)C(C)(C)N)CC5)nc4=O)cc3)C[C@@H]12` [Compound 75]: the results for the IC50 in test [1] and in test [2] were less than 0.5 µM and no less than 1 µM, respectively. The MIC in test [3] is greater than 32 µg/mL; in test [4], less than 8 µg/mL; in test [5], 8 to 32 µg/mL; in test [6] it was greater than 32 µg/mL; in test [7], less than 8 µg/mL.
Regarding `CC(C)(N)C(=O)N1CCN(C(=O)Nc2ccn(-c3ccc(CN4CCC5(CCNC5)C4)cc3)c(=O)n2)CC1` (stereo not drawn) [Compound 80], the IC50 in test [1] is less than 0.5 µM; in test [2] it was no less than 1 µM. The MIC was greater than 32 µg/mL in test [3]; less than 8 µg/mL in test [4]; greater than 32 µg/mL in test [5]; greater than 32 µg/mL in test [6]; less than 8 µg/mL in test [7].
For `CC(C)(N)C(=O)N1CCN(C(=O)Nc2ccn(-c3ccc(CN4CCC5(CC4)CNC5)cc3)c(=O)n2)CC1` [Compound 83], the figures for the IC50 in test [1] and in test [2] were 0.5 to 1 µM and no less than 1 µM, respectively. Moreover, the MIC in test [3] was greater than 32 µg/mL; in test [4], less than 8 µg/mL; in test [5] it was greater than 32 µg/mL; in test [6], greater than 32 µg/mL; in test [7], less than 8 µg/mL.
For `CC(C)(N)C(=O)N1CCN(C(=O)Nc2ccn(-c3ccc(CCN4CCC5(CC4)CC5N)cc3)c(=O)n2)CC1` (stereo not drawn) [Compound 94], the values for the IC50 in test [1] and in test [2] were less than 0.5 µM and no less than 1 µM, respectively. Further, the MIC in test [3] was greater than 32 µg/mL; in test [4], less than 8 µg/mL; in test [5], 8 to 32 µg/mL; in test [6] it was 8 to 32 µg/mL; in test [7], less than 8 µg/mL.
As for `CC(C)(N)C(=O)N1CCN(C(=O)Nc2ccn(-c3ccc(CCN4CCC5(CCC5N)CC4)cc3)c(=O)n2)CC1` (stereo not drawn) [Compound 95], the IC50 was less than 0.5 µM in test [1] and no less than 1 µM in test [2]. The MIC in test [3] was greater than 32 µg/mL; in test [4], less than 8 µg/mL; in test [5], greater than 32 µg/mL; in test [6] it was greater than 32 µg/mL; in test [7] it was less than 8 µg/mL.
Regarding `CC(C)(N)C(=O)N1CCN(C(=O)Nc2ccn(-c3ccc(CCN4CC5CC(N)C5C4)cc3)c(=O)n2)CC1` (stereo not drawn) [Compound 96], the IC50 was less than 0.5 µM in test [1] and no less than 1 µM in test [2]. Further, the MIC was greater than 32 µg/mL in test [3]; less than 8 µg/mL in test [4]; less than 8 µg/mL in test [5]; 8 to 32 µg/mL in test [6]; less than 8 µg/mL in test [7].
For `C[C@@](N)(CO)C(=O)N1CCN(C(=O)Nc2ccn(-c3ccc(CCN4CCC5CC5(N)C4)cc3)c(=O)n2)CC1` (stereo partly drawn) [Compound 99], the IC50 in test [1] was 0.5 to 1 µM; in test [2], no less than 1 µM. The MIC in test [3] was greater than 32 µg/mL; in test [4] it was less than 8 µg/mL; in test [5], 8 to 32 µg/mL; in test [6], greater than 32 µg/mL; in test [7], less than 8 µg/mL.
For `CC(C)(N)C(=O)N1CCN(C(=O)Nc2ccn(-c3ccc(CCN4CCC5CC5(N)C4)c(F)c3)c(=O)n2)CC1` (stereo not drawn) [Compound 100], the IC50 in test [1] is less than 0.5 µM; in test [2] it was no less than 1 µM. Further, the MIC in test [3] is 8 to 32 µg/mL; in test [4], less than 8 µg/mL; in test [5], less than 8 µg/mL; in test [6], greater than 32 µg/mL; in test [7], less than 8 µg/mL.
As for `Cc1cc(-n2ccc(NC(=O)N3CCN(C(=O)C(C)(C)N)CC3)nc2=O)ccc1CCN1CCC2CC2(N)C1` (stereo not drawn) [Compound 101], the values for the IC50 in test [1] and in test [2] were less than 0.5 µM and no less than 1 µM, respectively. In addition, the MIC in test [3] is 8 to 32 µg/mL; in test [4], less than 8 µg/mL; in test [5], less than 8 µg/mL; in test [6], greater than 32 µg/mL; in test [7] it was less than 8 µg/mL.
For the compound `CC(C)(N)C(=O)N1CCN(C(=O)Nc2ccn(-c3ccc(CCN4C[C@@H]5[C@@H](CN)[C@@H]5C4)c(C(F)(F)F)c3)c(=O)n2)CC1` [Compound 102], the IC50 in test [1] was less than 0.5 µM; in test [2] it was no less than 1 µM. The MIC in test [3] was greater than 32 µg/mL; in test [4], less than 8 µg/mL; in test [5], 8 to 32 µg/mL; in test [6], 8 to 32 µg/mL; in test [7], less than 8 µg/mL.
Regarding `CC(C)(N)C(=O)N1CCN(C(=O)Nc2ccn(-c3ccc(CCN4CCC5CC5(N)C4)c(C(F)(F)F)c3)c(=O)n2)CC1` (stereo not drawn) [Compound 103], the IC50 in test [1] was 0.5 to 1 µM; in test [2], no less than 1 µM. In addition, the MIC was greater than 32 µg/mL in test [3]; 8 to 32 µg/mL in test [4]; 8 to 32 µg/mL in test [5]; greater than 32 µg/mL in test [6]; 8 to 32 µg/mL in test [7].
With `CC(C)(N)C(=O)N1CCN(C(=O)Nc2ccn(-c3ccc(C(N)C(=O)N4C[C@@H]5[C@@H](N)[C@@H]5C4)cc3)c(=O)n2)CC1` (stereo partly drawn) [Compound 105], the IC50 in test [1] and in test [2] was no less than 1 µM throughout. Moreover, the MIC in test [3], in test [4], in test [5], in test [6] and in test [7] was greater than 32 µg/mL throughout.

The values above are taken from patent US12692253B2, “Antimicrobial compounds and methods” (Curza Global, LLC, priority 2019, dated 2026).
